Measured values: paper PMC13198257, “An aerosolized dual-action autotaxin inhibitor-PPARγ agonist for the treatment of pulmonary fibrosis” (Cell Reports Medicine, 2026)
“Also recorded” adds a separate entry of the source. Blank lines part the entries; values can stand above or below the compound they belong to.

Columns and labels:
[1] = target: T1, ATX (Homo sapiens, UniProt Q13822); test: Amplex Red assay: ATX inhibitory activity in vitro; type: biochemical; details: for IC50: Amplex Red assay; for IC50 / Inhibition of ATX enzymatic activity: in vitro; for % inhibition of ATX: at 100 μΜ, Table S1; for ATX activity, fold lower than that of TGZ: ratio of IC50
T1 construct: purchased Sino Biological 11308-H07H
Experimental: (§1) ATX inhibitory activity in vitro of examined compounds was assessed with the Amplex Red assay,[32]^,[35]^,[36] as recently published in detail.[37] The assay was done in Amplex Red Assay buffer (Tris 50 mM, CaCl2 5 mM, pH 8). Briefly, 50 μL of increasing concentrations of each compound were placed in separate wells of a black 96-well plate. […] 50 μL of the LPC-containing assay buffer (200 μM) were added to the wells and incubated for 30 min at 37°C to allow the enzyme to initially interact with its substrate. 50 μL of the detection mix (Amplex Red 200 μM, choline oxidase 0.4 U/mL, horseradish peroxidase 4 U/mL) were added to the plate wells. Fluorescence was measured in a Tecan M200 Fluorimeter using excitation at 530 nm and reading at 590 nm, every 5 min for 30 min. The velocity of the reaction and the remaining ATX activity were calculated at the linear phase of the reaction. Dose-response inhibition graphs were plotted with GraphPad Software.

[2] = tested on: choline oxidase and horseradish peroxidase; test: Interference with the 2nd and 3rd reaction of the Amplex Red assay; type: biochemical
Experimental: as §1
Figure S3. Kinetic analysis of ATX inhibition. Related to Figures 3 and 4
(B) Kinetics for the second (oxidation of choline catalysed by choline oxidase) and third reaction (the conversion of the
Amplex substrate to the fluorescent resorufin catalysed by horseradish peroxidase, HRP) of the Amplex Red Lyso-
phospholipase D assay for representative compounds (TGZ, 4, 5 and EL244). The first reaction includes the conversion of
LPC to LPA catalysed by ATX.
Kinetic graphs are indicative of three technical replicates. […]

[3] = target: T2, PPARγ (Homo sapiens, UniProt P37231); test: PPARγ Gal4 hybrid reporter gene assay; type: cell-based; details: Gal4-hybrid reporter, HEK293T cells
T2 construct: expressed in transfected cells; host or cells: HEK293T
T2 sequence (P37231 238-503 limits assumed): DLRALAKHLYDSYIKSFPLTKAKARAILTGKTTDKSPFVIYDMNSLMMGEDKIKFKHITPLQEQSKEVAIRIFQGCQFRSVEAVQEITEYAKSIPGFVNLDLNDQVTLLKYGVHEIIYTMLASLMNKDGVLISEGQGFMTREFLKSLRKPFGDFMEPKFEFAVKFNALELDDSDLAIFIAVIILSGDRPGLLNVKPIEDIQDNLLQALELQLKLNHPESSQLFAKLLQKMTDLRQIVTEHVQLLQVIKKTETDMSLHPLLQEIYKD
Experimental: All well-established assays were performed following straightforward methodology.[49] Plasmids pFA-CMV-hPPARα-LBD, pFA-CMV-hPPARγ-LBD and pFA-CMV-hPPARδ-LBD code for the hinge region and ligand binding domain of the canonical isoform of the respective nuclear receptor and were used to express the Gal4 hybrid receptors. pFR-Luc (Stratagene, La Jolla, CA, USA) and pRL-SV40 (Promega, Madison, WI, USA) were used as Gal4-responsive reporter and as internal control in the hybrid reporter gene assays, respectively. HEK293T cells were seeded in 96-well plates (3×10^4 cells/well). Before transfection, the medium was changed to Opti-MEM without supplements, and transient transfection with the plasmids pFR-Luc, pRL-SV40, and one pFA-CMV-NR-LBD clone was carried out using Lipofectamine LTX reagent (Invitrogen, Carlsbad, CA, USA) according to the manufacturer’s protocol. […] Normalisation of transfection efficiency and cell growth was performed by dividing firefly luminescence by Renilla luminescence and multiplying the result by 1000, yielding relative light units (RLU). Fold activation was obtained by dividing the mean RLU of the test compound by the mean RLU of the untreated control.

[4] = Cytotoxicity in HepG2 hepatocytes; type: cell-based; details: human, HepG2 cells
[5] = target: hERG (Homo sapiens, UniProt Q12809); test: hERG inhibition; type: biochemical
Sequence of hERG (Q12809 whole entry): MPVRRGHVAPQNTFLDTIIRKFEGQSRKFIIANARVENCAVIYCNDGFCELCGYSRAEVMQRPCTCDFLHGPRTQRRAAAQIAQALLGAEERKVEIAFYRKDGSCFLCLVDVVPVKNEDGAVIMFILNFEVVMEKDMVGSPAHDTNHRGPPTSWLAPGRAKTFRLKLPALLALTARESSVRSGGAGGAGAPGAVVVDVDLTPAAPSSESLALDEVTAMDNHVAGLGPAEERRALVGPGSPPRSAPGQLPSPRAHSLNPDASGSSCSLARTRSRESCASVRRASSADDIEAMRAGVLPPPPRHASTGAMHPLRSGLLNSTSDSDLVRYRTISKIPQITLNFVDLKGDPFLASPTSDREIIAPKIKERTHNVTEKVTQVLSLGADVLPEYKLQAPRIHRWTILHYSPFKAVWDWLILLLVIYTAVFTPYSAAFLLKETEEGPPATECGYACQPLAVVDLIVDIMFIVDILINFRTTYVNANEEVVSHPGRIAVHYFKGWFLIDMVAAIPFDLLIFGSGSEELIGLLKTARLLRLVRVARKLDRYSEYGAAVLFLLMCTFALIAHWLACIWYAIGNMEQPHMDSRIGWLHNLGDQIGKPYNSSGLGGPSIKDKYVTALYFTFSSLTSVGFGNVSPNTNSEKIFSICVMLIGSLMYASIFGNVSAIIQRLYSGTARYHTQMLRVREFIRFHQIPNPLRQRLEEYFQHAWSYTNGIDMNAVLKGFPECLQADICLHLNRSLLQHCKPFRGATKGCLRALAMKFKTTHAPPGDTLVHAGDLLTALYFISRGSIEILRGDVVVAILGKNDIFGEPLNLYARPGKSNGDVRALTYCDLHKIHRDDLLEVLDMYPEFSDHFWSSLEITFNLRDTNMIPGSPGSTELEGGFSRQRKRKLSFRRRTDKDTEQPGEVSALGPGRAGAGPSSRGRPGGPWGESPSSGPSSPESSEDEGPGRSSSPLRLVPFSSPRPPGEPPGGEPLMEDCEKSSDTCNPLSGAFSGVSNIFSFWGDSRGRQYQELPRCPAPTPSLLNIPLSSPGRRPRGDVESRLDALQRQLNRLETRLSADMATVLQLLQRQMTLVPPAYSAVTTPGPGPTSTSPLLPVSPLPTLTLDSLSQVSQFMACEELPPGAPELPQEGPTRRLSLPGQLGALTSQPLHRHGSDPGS

[6] = AMP membrane permeability; type: in vitro ADME; details: 10 μΜ
[7] = in vitro; details: mouse
[8] = Mouse metabolic clearance and half-life in vitro
[9] = target: T1, ATX; test: Mode of ATX inhibition, Lineweaver-Burk plots (various LPC concentrations); type: biochemical
Experimental: To determine the mode of inhibition of ATX, various concentrations of TGZ, compound 5 and EL244 were tested against various LPC concentrations. Specifically, TGZ was tested against 6.25, 12.5, 25, 50 and 100 μM LPC, compound 5 was tested against 3.125, 6.25, 12.5, 25, 50 and 100 μM LPC, while EL244 was tested against 25, 50, 100 and 150 μM LPC. Lineweaver–Burk graphs depicting the reciprocal of velocity (1/V) against the reciprocal of substrate concentration (1/S) were plotted with GraphPad Software.

IC50 [1]: 2000 nM
ATX activity, fold lower than that of TGZ [1]: 4 fold
SMILES: N#Cc1sc(NCCOc2ccc(/C=C3/SC(=O)NC3=O)cc2)nc1-c1ccc(F)cc1 [Compound 1, (E)-2-((2-(4-((2,4-dioxothiazolidin-5-ylidene)methyl)phenoxy)ethyl)amino)-4-(4-fluorophenyl)thiazole-5-carbonitrile]

IC50 [1]: 17800 nM
SMILES: Cc1c(C)c2c(c(C)c1O)CCC(C)(COc1ccc(/C=C3/SC(=O)N(Cc4ccc(F)cc4)C3=O)cc1)O2 (stereo not drawn) [Compound 3, (E)-3-(4-fluorobenzyl)-5-(4-((6-hydroxy-2,5,7,8-tetramethylchroman-2-yl)methoxy)benzylidene)thiazolidine-2,4-dione]

EC50 [3]: 1000 nM
PPARγ fold activ. (max. activation) [3]: 5.6 ± 0.5 fold
IC50 [1]: 940 nM
SMILES: N#Cc1sc(NCCOc2ccc(CC3SC(=O)NC3=O)cc2)nc1-c1ccc(F)cc1 (stereo not drawn) [Compound 4, 2-((2-(4-((2,4-dioxothiazolidin-5-yl)methyl)phenoxy)ethyl)amino)-4-(4-fluorophenyl)thiazole-5-carbonitrile]
Interference on the 2nd and 3rd steps of the Amplex Red assay [2]: Minimal interference; also recorded: not involved at all in the second and third reaction

IC50 [1]: > 100000 nM
Inhibition of ATX enzymatic activity [1]: not to inhibit ATX enzymatic activity
SMILES: CCc1ccc(CCOc2ccc(CC3SC(=O)NC3=O)cc2)nc1 (stereo not drawn) [PGZ, pioglitazone, reference compound]

IC50 [1]: > 100000 nM
Inhibition of ATX enzymatic activity [1]: not to inhibit ATX enzymatic activity
SMILES: CN(CCOc1ccc(CC2SC(=O)NC2=O)cc1)c1ccccn1 (stereo not drawn) [RGZ, rosiglitazone, reference compound]

Mode of ATX inhibition [9]: non-competitive
IC50 [1]: 530 nM
% inhibition of ATX [1]: fully inhibited ATX activity
% inhibition of ATX ([1]; listed as 1467): 99.17%
SMILES: Cc1c(C)c2c(c(C)c1O)CCC(C)(COc1ccc(CC3SC(=O)NC3=O)cc1)O2 (stereo not drawn) [TGZ, troglitazone, reference compound]
CC50 [4]: 34000 nM

More lines, now with the values behind:

SMILES: COc1cc(-c2ccc(N=Nc3ccc4c(S(=O)(=O)O)cc(S(=O)(=O)O)c(N)c4c3O)c(OC)c2)ccc1N=Nc1ccc2c(S(=O)(=O)O)cc(S(=O)(=O)O)c(N)c2c1O [CSB, Chicago Sky Blue 6B, reference compound]
IC50 [1]: 1600 nM
% inhibition of ATX [1]: fully inhibited ATX activity
% inhibition of ATX ([1]; listed as 425): 99.21%

SMILES: O=C1NC(=O)/C(=C\c2ccc(OCCN3CCN(C(=O)OCc4cc(Cl)cc(Cl)c4)CC3)cc2)S1 [Compound 2, 3,5-Dichlorobenzyl (E)-4-(2-(4-((2,4-dioxothiazolidin-5-ylidene)methyl)phenoxy)ethyl)piperazine-1-carboxylate]
IC50 [1]: 2000 nM
ATX activity, fold lower than that of TGZ [1]: 4 fold

SMILES: COC(=O)c1ccc2c(c1)NC(=O)/C2=C(\Nc1ccc(N(C)C(=O)CN2CCN(C)CC2)cc1)c1ccccc1 [Nintedanib, reference compound]
CC50 [4]: 4000 nM
IC50 [5]: 4000 nM
AMP [6]: 7.8e-07 cm/s
half-life at 0.1 μM [7]: 58 min
microsomal CLint at 0.1 μM [8]: 122 µL/min/mg

SMILES: O=C(CCN1CCN(C(=O)OCc2cc(Cl)cc(Cl)c2)CC1)c1ccc2[nH]c(=O)oc2c1 [PF-8380, reference compound]
CC50 [4]: > 100000 nM
IC50 [5]: 500 nM
half-life at 0.1 μM [8]: < 10 min
microsomal CLint at 0.1 μM [8]: 766 µL/min/mg
